Measurements published in patent publication US20030148991A1, “Combination of lipoic acid and c1 donors for the treatment of disorders of the central nervous system” (priority 2000, published 2003).

What was measured:
brain cells = experiment: Measurement of the production of free radicals (DHR 123 fluorescence); format: cell-based; conditions: 100 and 500 μmol/l, time-dependent, compared with control, FIGS. 3 and 4
Method: Oxidative stress or the production of free radicals was measured using the fluorescence dye dihydrorhodamine (DHR 123). Brain cells were enriched by incubation with DHR 123 in a waterbath at 37° C. for 15 minutes. DHR is then located in particualr in the mitochondria and fluoresces after oxidation by free radicals. Fluorescence was measured at an excitation wavelength of 500 nm and an emission wavelength of 536 nm. The generation of free radicals was then measured in the absence (control) and presence of lipoic acid at various concentrations (100 and 500 μmol/l).

whole brain membranes = experiment: Measurement of membrane fluidity (DPH fluorescence anisotropy); design: species or system NMRI mice; conditions: whole brain membranes from old (22 months) mice; 1, 10, 100 μmol/l and 1 mmol/l; 37° C.; FIGS. 1 and 2
Method: The fluidity of whole brain membranes (without cerebellum, medella oblongata and brain stem) from young (3 months) and old (22 months) NMRI mice was determined by fluorescence spectroscopy.
Mouse whole brain membranes were prepared by a modification of the method of Cohnen and Müller, 1993. The deep-frozen hemispheres were, after weighing, transferred into 15 ml of ice-cold buffer IV (Tris-HCl buffer 5 mmol/l; pH 7.4), homogenized using a homogenizer (Potter, glass homogenizer with Teflon pestle, from Braun) at about 1 100 rpm by moving the Teflon pestle up and down about ten times, and transferred into centrifuged tubes (PP30 ml, from Schubert). […]
Membrane fluidity can be measured inter alia by fluorescence spectroscopic methods. In fluorescence polarization spectroscopy, a membrane-bound fluorescent dye is brought to an excited energy state by polarized light of a particular wavelength. […] Membrane fluidity is therefore also indicated as fluorescence anisotropy besides the fluorescence polarization. The anisotropy is in this case calculated from the measured polarization.
The fluorescent dye diphenylhexatriene (DPH) was used for this purpose. […] This process is measured as anisotropy. […]

With `O=C(O)CCCCC1CCSS1` (centres unmarked) [lipoic acid, 5-(1,2-dithiolan-3-yl)valeric acid] the “generation of free radicals (increase in DHR 123 fluorescence)” value (brain cells) was “counteracts the generation of free radicals” and the “DPH anisotropy (membrane fluidity)” value (whole brain membranes) was “reduce the anisotropy in membranes from old mice”.
